Measurements taken from ChEMBL document CHEMBL5393441, “Bicyclic heterocyclic compounds as inhibitors ofbcdin3d activity” (2022).
The source made the active and inactive calls. The rule behind the calls is not given here.

Experiments:
[1] = target: T1, RNA 5'-monophosphate methyltransferase (Homo sapiens, UniProt Q7Z5W3); experiment: Inhibition of BCDIN3D (unknown origin) using mini-helix and SAM as substrate incubated for 1 hr by RapidFire High Throughput mass spectrometry
T1 sequence (Q7Z5W3 whole entry): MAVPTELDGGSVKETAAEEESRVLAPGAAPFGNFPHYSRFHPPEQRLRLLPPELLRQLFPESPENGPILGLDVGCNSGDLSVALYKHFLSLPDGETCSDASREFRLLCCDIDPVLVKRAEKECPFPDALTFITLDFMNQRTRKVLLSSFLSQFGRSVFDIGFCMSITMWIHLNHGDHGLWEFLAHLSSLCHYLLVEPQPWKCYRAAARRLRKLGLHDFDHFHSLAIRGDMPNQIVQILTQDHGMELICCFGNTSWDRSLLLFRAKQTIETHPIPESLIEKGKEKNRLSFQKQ

[2] = target: T1, RNA 5'-monophosphate methyltransferase; experiment: Binding affinity towards N-terminal ePL-tagged BCDIN3D (unknown origin) transfected in human A549 cells preincubated for 1 hr and measured by InCellPulse thermal stability assay; format: cell-based
[3] = target: T2, RNA 5'-monophosphate methyltransferase (Homo sapiens) (UniProt Q7Z5W3); experiment: Inhibition of BCDIN3D in activated CD4+ T cells isolated from human PBMC stimulated with anti-CD3/CD28 and restimulated with PMA and ionomycin for 4 hrs in the presence of brefeldin A assessed as reduction in IFN-gamma production at 100 to 500 nM; format: cell-based; conditions: T cell, dose 100-500 nM
T2 sequence (whole entry): T1 sequence (Q7Z5W3 whole entry)

Mus musculus = experiment: Antiinflammatory activity in sheep red blood cells (SRBCs)-induced delayed hypersensitivity male CD-1/ICR mouse model at 30 mg/kg administered once daily for 7 days; format: functional, organism-based; conditions: time 7.0 day

| Compound | IC50 [1] [nM] | IC50 [2] [nM] | inhibition [3] | Activity (Mus musculus) |
| --- | --- | --- | --- | --- |
| Cn1ncc2c(Nc3cc(F)cc(F)c3)nc(NCC3(N)CC3)nc21 | 1000 | 4650 |  |  |
| Cn1ncc2c(Nc3ccc(C(F)(F)F)cc3)nc(NCC3(N)COC3)nc21 |  | 6670 |  |  |
| COc1cc(Nc2nc(NCC3(N)CC3)nc3c2cnn3C)cc(OC)c1 | 1260 | 2990 |  |  |
| Cc1cc(Nc2nc(NCC(N)CF)nc3c2cnn3C)ccc1Cl (stereo not drawn) | 6170 | 5500 |  |  |
| CNc1nc(NC[C@](C)(N)c2ccccc2)nc2c1cnn2C | 7650 | 10800 |  |  |
| Cn1ncc2c(NC3CCC(F)(F)C3)nc(NC[C@H](N)c3ccccc3)nc21 (stereo partly drawn) | 450 | 580 |  |  |

Second part, led by results:

| IC50 [1] [nM] | IC50 [2] [nM] | inhibition [3] | Compound | Activity (Mus musculus) |
| --- | --- | --- | --- | --- |
| 17 | 34 |  | Cn1ncc2c(NCC3CC(C(F)(F)F)C3)nc(NC[C@H](N)c3ccccc3)nc21 (stereo partly drawn) |  |
| 189 | 889 |  | Cn1ncc2c(NC34CC(C3)C4)nc(NCC(N)c3ccccc3)nc21 (stereo not drawn) |  |
| 1650 | 6460 |  | Cc1ccc(CNc2nc(NCCN)nc3c2cnn3C)cc1Cl |  |
|  |  | Active | Cn1ncc2c(NC(C)(C)C)nc(NC[C@H](N)c3ccccc3)nc21 | Active |
|  |  | Active | Cn1ncc2c(Nc3ccc(Cl)cc3)nc(NC[C@H](N)c3ccccc3)nc21 | Active |
| 38.1 | 133 |  | Cn1ncc2c(Nc3ccc(C(F)(F)F)nc3)nc(NC[C@@](C)(N)c3ccccc3)nc21 |  |
